Measured values: the NIST ThermoML archive (doi:10.1021/acs.jced.9b00173)
Numbers after ± are expanded uncertainties.

Assay: xn = mol fraction of the nth substance listed
Details: 303.15 K, 101.3 kPa, Liquid, Concentric cylinders viscometry

Compound | viscosity (x1 = 0.5) | viscosity (x2 = 0.5)
c1nc[nH]n1 [1H-1,2,4-triazole] + CCCC[P+](CCCC)(CCCC)CCCC.[Cl-] | 67.23 ± 2 mPa·s | 
c1nnn[nH]1 [1H-tetrazole] + CCCC[N+](CCCC)(CCCC)CCCC.[Br-] | 279.15 ± 15 mPa·s | 
c1nnn[nH]1 [1H-tetrazole] + CCCC[N+](CCCC)(CCCC)CCCC.[Cl-] | 87.88 ± 2.8 mPa·s | 
c1nnn[nH]1 [1H-tetrazole] + CCCC[P+](CCCC)(CCCC)CCCC.[Br-] | 68.26 ± 2.1 mPa·s | 
c1nnn[nH]1 [1H-tetrazole] + CCCC[P+](CCCC)(CCCC)CCCC.[Cl-] | 40.22 ± 1.5 mPa·s | 
CCCC[P+](CCCC)(CCCC)CCCC.[Cl-] [tetrabutylphosphonium chloride] + c1c[nH]cn1 |  | 52.34 ± 1.6 mPa·s
